pIC50: −log10 of the molar value. Like-named read-outs stand apart in the source and are kept apart here.
Tests used:
GSK3 = conditions: cited from earlier work
MSC80 cells = assay: Western blot of MPZ, PMP22 and β-catenin proteins in MSC80 cells; type: cell-based, mouse; conditions: SB216763 10 µM, after 3h, lasted until 24h
Description: Western blot analysis confirmed the stimulation of MPZ and PMP22 expression. […] This difference may be due to specific mRNA and protein half-life.
The increase in PMP22 protein expression was timedependent.

[1] = GSK3 inhibitors, see Meijer L et al, Trends in Pharmacological Sciences 2004

Compound | pIC50 (GSK3; [1]) | other results
CC(=O)O/N=C1/C(=C2/C(=O)Nc3cc(Br)ccc32)Nc2ccccc21 [6-bromoindirubin-3'acetoxime, (2'Z,3'E)-6-Bromoindirubin-3'-acetoxime] | > 7.00 | 
OCCCNc1cc(-c2ccnc(Nc3cccc(Cl)c3)n2)ccn1 [CGP60474, 3-{4-[2-(3-chlorophenylamino)-pyrimidin-4-yl]-pyridin-2-yl-amino}-propanol] | > 7.00 | 
[H]/N=C(/N)SCCCn1cc(C2=C(c3cn(C)c4ccccc34)C(=O)NC2=O)c2ccccc21 [Ro318220] | > 7.00 | 
Cn1cc(C2=C(c3ccc(Cl)cc3Cl)C(=O)NC2=O)c2ccccc21 [SB216763] | […] | expression of MPZ protein (Western blot) (MSC80 cells): enhanced; expression of PMP22 protein (Western blot) (MSC80 cells): enhanced; expression of β-catenin protein (Western blot) (MSC80 cells): enhanced
Nc1cccc(-c2cc3c(Oc4cccc(O)c4)ncnc3[nH]2)c1 [TWS119] | > 7.00 | 
CHIR98014 |  | pIC50 (GSK3): > 7.00

Reference: patent EP2305274A1, “Use of WNT stimulators for treating demyelinating diseases” (Centre National de la Recherche Scientifique (CNRS), priority 2009, dated 2011)
